According to a melting point compilation (Tetko et al.; mined from patent text by program, amines drawn as free bases though some values may be those of a salt):

Row | melting point [°C] | Structure (SMILES)
1 | 74 to 76 | CC(C)(C#N)c1cc(Cn2cncn2)cc(-c2ccc(OS(N)(=O)=O)cc2)c1
2 | 193 to 196 | O=C(Nc1ccc2c(c1)OCC(=S)N2)C(=O)N1CCC(Cc2ccccc2)CC1
3 | 245 to 247 | CCc1nc2c(N)nc3ccccc3c2n1CC1(O)CCOC1 (stereo not given)
4 | 152 to 153 | CC(=O)Nc1ccnn(C)c1=O
5 | 170 to 173 | Cc1cc(SC(C)c2ccc3nc(-c4ccc(C(F)(F)F)cc4)sc3c2)ccc1OCC(=O)O (stereo not given)
6 | 97 to 99 | Cn1ccnc1Sc1ccc([N+](=O)[O-])cc1F
7 | 298 to 299 | COc1ccc2ncn(/C=C/C(=O)O)c(=O)c2c1
8 | 217 to 218 | CCCc1cc2c(=O)n3cc(C#N)ccc3nc2s1
9 | 98 to 100 | COc1cc(C(=O)c2ccccc2)cc(C#N)c1OC
10 | 188 to 190 | Cc1ccc(CC(CS)C(=O)Nc2cccc(C(=O)O)c2)cc1 (stereo not given)
11 | 142 to 144 | CCOC(=O)CC1CN(c2c(C)cccc2C)C(=N)N1c1c(C)cccc1C (stereo not given)
12 | 160 to 163 | CCc1nn(C(C)C)c2cc(C(=O)O)ccc12
13 | 83.5 to 84.5 | Cc1cc(C(F)(F)F)n2nc(SCc3ccccc3)nc2n1
14 | 128 to 130 | COc1ccc(Oc2c(C)noc2NS(=O)(=O)c2ccccc2)cc1
15 | 203 | CCCCCCCNC(=O)Nc1c(C(=O)NC2CCN(C(c3ccccc3)c3ccccc3)CC2)cccc1N(C)C
16 | 125 | C=CCN1C(=O)C(O)(CC(=O)N(C)C)c2cc(CO)ccc21 (stereo not given)
17 | 223 to 226 | O=C(c1ccccc1)N1CCc2[nH]c3cccc(-c4ccccc4)c3c2CC1
18 | 132 to 133 | COc1cc(OC)nc(C(C)c2ccccc2NS(=O)(=O)C(F)(F)F)n1 (stereo not given)
19 | 199 to 201 | Cc1cccc(N2CCN(CCCCc3ccc(C(=O)CCC(=O)O)cc3)CC2)c1
20 | 180 to 182 | COC(=O)C1=C(C)NC(C)=C(C(=O)OCCBr)C1c1cccc(Cl)c1Cl (stereo not given)
21 | 92 to 94 | CC1=C(C(=O)OCCN2C(=O)c3ccccc3C2=O)C(c2cccc([N+](=O)[O-])c2)C(C(=O)OCCN2C(=O)c3ccccc3C2=O)=C(C)N1
22 | 174 | CNc1nn(C(=O)NC(C)(C)C)c(=O)n1N
23 | 167 to 169 | C#Cc1c(N)cc(-c2ccc(Cl)c(OC)c2F)nc1C(=O)OC
24 | 212 to 213 | CC(=O)N1CCN(NC(=O)c2cccs2)CC1

Row | melting point [°C] | Structure (SMILES)
25 | 218 to 220 | COc1ccc2cc(-c3noc(C)n3)c(=O)oc2c1
26 | 65 to 66 | CC1CCC(Oc2cc(F)cc(C(=O)Nc3ccc(OCCN4CCOCC4)c4ccccc34)c2)C1 (stereo not given)
27 | 118 | CCOC1=N[C@@H](CSCC)C(=O)N[C@@H]1Cc1ccccc1
28 | > 250 | NC1=NS(=O)(=O)Nc2cccc(OCC3(NC(=O)c4ccncc4)CCCC3)c21
29 | 120 to 125 | COC(=O)c1cc(C2=CCCO2)c(C(F)(F)F)cc1NC(C)=O
30 | 48 to 50 | COC(=O)CCOc1ccc(C=O)cc1
31 | 185 to 186 | NS(=O)(=O)c1c(-c2ccccc2)sc2ccccc12
32 | 200 to 205 | CC(Oc1ccc2nc(-c3ccccc3OC(N)=O)sc2c1)c1ccccc1C(F)(F)F (stereo not given)
33 | 212 to 214 | CN1C(=O)C2(COc3cc4c(cc32)OCCO4)c2c1cccc2-n1ccccc1=O (stereo not given)
34 | 165 to 168 | COc1ccc(Cl)cc1C(=O)NCCc1ccc(-c2cc(C)cs2)c(S(N)(=O)=O)c1
35 | 272 to 275 | Fc1ccc2[nH]c(C3=Cc4ccccc4C3)cc2c1
36 | 81.5 to 82.5 | CCCCCCCCCCN1C(=O)C2CC(c3ccc(N)cc3)(C2)C1=O
37 | 84 to 87 | N#CCCN(CC1CC1)C(N)=O
38 | 205 to 207 | COc1ccc(Cn2cnc3c(-c4ccco4)nc(C#N)nc32)cc1
39 | 159 to 163 | CCCCN(c1nc(N2CCOCC2)nc(N(CCCC)C2CC(C)(C)N(OC3CCCCC3)C(C)(C)C2)n1)C1CC(C)(C)N(OC2CCCCC2)C(C)(C)C1
40 | 154 to 155 | CCOCc1cc(OC)c(-c2ccc(C[C@H](NC(=O)c3c(F)cccc3F)C(=O)O)cc2)c(OC)c1
41 | 166 to 168 | O=C(C(Cl)(Cl)Cl)C1(c2ccc(Cl)cc2)C=CC=N1 (stereo not given)
42 | 179 to 181 | CCC(CC)Oc1cc(C)nc2c1NC(=O)CN2c1c(C)cc(C)cc1C
43 | 162 to 165 | CCOC(=O)C=Cc1ccc(Cl)cc1N(CC(=O)c1ccc(Cl)cc1)S(=O)(=O)c1ccc(C)cc1
44 | 146 | Cc1cccc(NC(=O)CN2c3ccc(Cl)c(Cl)c3[C@@H]3CCN(C(=O)OC(C)(C)C)CC[C@@H]32)c1C (relative stereo)
45 | 117 to 119 | OCCC(=C(c1ccccc1)c1ccccc1)c1ccccc1
46 | > 310 | O=C(O)c1cc(-c2ccncc2)n[nH]c1=O
47 | 115 to 116 | CCc1c(C(=O)c2cc(C)cc(C)c2)n(COCc2ccccc2)c(=O)[nH]c1=O
48 | 80 to 81 | Clc1cc(-c2ccccn2)ccn1

Row | melting point [°C] | Structure (SMILES)
49 | 187 | O=C1c2ccccc2CCn2cnnc21
50 | 165 to 168 | COc1ccc(C(=O)Nc2ccccc2)cc1NC(=S)Nc1cccc(Cl)c1
51 | 223 to 226 | CNC(=O)C(Cc1ccc(OC)cc1)NC(=O)C(CC(C)C)C(S)CC(=O)NCC(=O)OC(C)(C)C (stereo not given)
52 | 113 to 115 | COC(=O)c1nc(-c2cc(N(C)C)c(Cl)cc2F)cc(N)c1Cl
53 | 228 to 230 | COc1ccc(C2=NNS(=O)(=O)Cc3cc4nsnc4cc32)cc1OC
54 | 153 to 155 | Cc1cccc(NCC2=NCCN2C(=O)Nc2ccc(Cl)cc2)c1C
55 | 179 to 181 | Cc1nc(-c2ccc(OC(F)(F)F)cc2)sc1C(=O)O
56 | 120 to 122 | CNC(=O)Nc1cc(NC(=O)/C=C/c2ccc(C(C)(C)C)cc2)ccc1Cl
57 | 220 to 222 | O=C(O)C1Cc2c(c(Cl)cc3c(-c4ccccc4Cl)noc23)O1 (stereo not given)
58 | 163 to 165 | Fc1ccc(Nc2ncnc3cnc(OC4CCOC4)nc23)cc1Cl (stereo not given)
59 | 74.5 to 75 | O=C(CC(O)(c1cc(Cl)cc(Cl)c1)C(F)(F)F)c1ccc(Br)c2ccccc12 (stereo not given)
60 | 74.4 | CC(C)(C)OC(=O)NCc1ccc(N)cc1
61 | 120 to 121 | NNc1cc(-c2ccccn2)ccn1
62 | 92 to 95 | CCOC(=O)c1cc2ccccc2n1S(=O)(=O)c1ccc(C)cc1
63 | 119 to 122 | Nc1ccc(Sc2ccccc2)nc1N
64 | 48 to 50 | Clc1cccc2c1CNC2
65 | 192 | Cc1ccc(C2=C(C#N)C(c3cccc4nonc34)c3c[nH]nc3N2)s1 (stereo not given)
66 | 232 to 234 | Cn1ncc(C(=O)N2CCC2)c1C(=O)Nc1ccn2nc(N3CCOCC3)nc2c1
67 | 129 to 131 | CCOC(=O)CCc1c[nH]c2cnc(-n3cncn3)cc12
68 | 78 to 79 | Fc1ccc(C#Cc2nccs2)cc1
69 | 188 to 193 | CNCC1COC2(CCN(c3nc4c(cc3F)C=C(C(=O)O)CN4c3ccc(F)cc3F)CC2)O1 (stereo not given)
70 | 145 | O=C(c1ccc(F)cc1)C1CCN(CCN2c3cccc4cccc(c34)S2(=O)=O)CC1
71 | 171 to 173 | NC(=O)/C=C1\CCc2c(F)cc(Cl)cc21
72 | 166 to 168 | C[C@]1(COc2ccc(N3CCN(C(=O)NCc4ccc(OC(F)(F)F)cc4)CC3)cc2)Cn2cc([N+](=O)[O-])nc2O1

Row | melting point [°C] | Structure (SMILES)
73 | 140 to 143 | CC(=O)OCCN1C(=O)C(=Cc2cc(C(C)(C)C)c(O)c(C(C)(C)C)c2)SC1=S
74 | 87 to 88 | Cc1nc2ccnn2c(Cl)c1CCCl
75 | 135 to 138 | O=C(c1cccs1)c1cnn2c(-c3cccc(OC4CCCC4)c3)ccnc12
76 | 81 | CCCCCCCCCCCCCCCC(O)C(N)CO (stereo not given)
77 | 40 to 45 | CCN(CC)CCNC(=O)c1cnc(-c2ccccc2)nc1Cl
78 | 127 to 129 | COC(=O)Cc1ccc(C(=O)CN2CCN(c3ccncc3)CC2)cc1
79 | 226 to 228 | O=C(CN1c2nc(-c3ccncc3)cc(=O)n2CCC1c1ccccc1)c1ccc2ccccc2c1 (stereo not given)
80 | 138 to 140 | CC1=C(c2ccc(Cl)cc2)n2ncc(C#N)c2N(C(=O)CCl)C1
81 | 82 to 85 | COC(=O)c1cc(Cl)c(Oc2ccc(OC)cc2)c(Cl)c1
82 | 95 to 96 | Fc1ccc(-c2ncn(CCCOc3ccccc3)c2-c2ccncc2)cc1
83 | 178 to 179 | Cc1nc(N)c2nc(C)n(CCCNC(=O)C(C)C)c2c1C
84 | 200 to 204 | C(#Cc1ccc(C2=CC(c3ccc(C#Cc4ccccc4)cc3)N(c3ccccc3)N2)cc1)c1ccccc1 (stereo not given)
85 | 80.4 to 81.3 | CCCCOc1cccc(C(=O)C=Cc2ccc(OC)cc2OC)c1
86 | 168 to 170 | Fc1ccc2c(c1)nc(/C=C/c1ccoc1)n2-c1ccccn1
87 | 136 | Cc1ccc(S(=O)(=O)OCCc2nc(-c3ccc(Br)cc3)oc2C)cc1
88 | 134 to 138 | CCCN(CCC)CC1CCN(CCNC(=O)N2c3ccccc3C(=O)Nc3cccnc32)C1 (stereo not given)
89 | 51 to 53 | CSc1cc(OCCC[Si](C)(C)C)c(Cl)cc1[N+](=O)[O-]
90 | 93 | C=Cc1ccc(COc2ccc(COC(=O)C(=O)OCC)cc2)cc1
91 | 130 to 131 | Nc1cc2c(cc1N)OC(F)(Cl)C(F)(Cl)O2 (stereo not given)
92 | 159 to 160 | CN(C)C(=O)COc1cc(Cl)ccc1C(=O)NCCN1CCN(CCc2ccccc2)CC1
93 | 170 to 172 | COc1cc(OC)c2c(C)c(CCOS(C)(=O)=O)c(=O)oc2c1
94 | 120 | O=S(=O)(c1ccc(Cl)cc1)N1CCCC1c1ccsc1 (racemic)
95 | 61 to 67 | CCCN(Cc1ccc(-c2ccccc2C(=N)NO)cc1)c1nc2ccccc2cc1C(=O)OCC
96 | 251 to 252 | O=C(O)CCNc1ccc2c(C(=O)NCC34CC5CC(CC(C5)C3)C4)c(Cl)ccc2n1

Row | Structure (SMILES) | melting point [°C]
97 | O=[N+]([O-])c1ccc(Sc2cc(Cl)cc(Cl)c2)c(S(=O)(=O)NC2CN3CCC2CC3)c1 (stereo not given) | 256
98 | CC(C)(N)Cc1nc2ccccc2[nH]1 | 209 to 214
99 | CCN(CC)c1ccc([N+](=O)[O-])c2nnoc12 | 133 to 136
100 | CN(C)C1(c2ccccc2)CCC2(OCCc3c2[nH]c2ccccc32)C(F)C1 (stereo not given) | 245 to 247
